# According to article PMC3467217, “A Potent Class of GPR40 Full Agonists Engages the EnteroInsular Axis to Promote Glucose Control in Rodents” (PLoS ONE, 2012):
# System: GLUTag cells
# Experiment: Inositol phosphate accumulation assay in GLUTag enteroendocrine L-cell line
# Type: cell-based, mouse
# Procedure: Increased GLP-1 and GIP would be expected to have additional benefits in type 2 diabetics. […] We tested for potential effects on incretin secretion in vitro by using cells isolated from fetal rat intestines.
# GPR40 aequorin, plasmid titration, and inositol phosphate assays were performed as described. For aequorin assays, in addition to transient transfection of GPR40 into CHO cells, a CHO cell line stably expressing both GPR40 and aequorin was generated. GLUTag cells were obtained under a license from Dr. Daniel Drucker, University of Toronto. Competition binding experiments were performed using membranes prepared from A9_GPR40 cells. […] Competition binding assays were carried out in 20 mM Hepes pH 7.5, 5 mM MgCl2, 100 mM NaCl and 0.1% (w/v) free fatty acid BSA and bound radioligand was collected on 96-well GF/C filter plates.
compound,measurement,value
COc1ccc(F)c(-c2ccc(COc3cccc([C@@H](CC(=O)O)C4CC4)c3)cc2C2=CCCC2(C)C)c1 [AM-1638],"inositol phosphate accumulation, fold increase compared to AMG 837",3–4 fold
